Experimental data from ChEMBL document CHEMBL4840376, “Berkeleylactones and a Citreohybriddione Analogue from Penicillium turbatum” (2021).
Several values for one entry are separate records, joined by “and”; a condition that tells them apart may be missing. Identical values can stand only once. Activity calls are given as the source filed them. The rule behind the calls is not given here.

Columns and labels:
Pseudomonas aeruginosa = experiment: Antibiotic activity against Pseudomonas aeruginosa assessed as reduction in bacterial growth by Alamar Blue dye based CLSI broth microdilution method; assay type: functional, organism-based
Nakaseomyces glabratus = experiment: Antibiotic activity against Candida glabrata assessed as reduction in fungal growth by Alamar Blue dye based CLSI broth microdilution method; assay type: functional
Escherichia coli = experiment: Antibiotic activity against Escherichia coli ATCC 25922 assessed as reduction in bacterial growth by Alamar Blue dye based CLSI broth microdilution method; assay type: functional, organism-based
Streptococcus pyogenes = experiment: Antibiotic activity against Streptococcus pyogenes assessed as reduction in bacterial growth by Alamar Blue dye based CLSI broth microdilution method; assay type: functional
Bacillus subtilis = experiment: Antibiotic activity against Bacillus subtilis ATCC 6633 assessed as reduction in bacterial growth by Alamar Blue dye based CLSI broth microdilution method; assay type: functional
Candida albicans = experiment: Antibiotic activity against Candida albicans assessed as reduction in fungal growth by Alamar Blue dye based CLSI broth microdilution method; assay type: functional
Bacillus anthracis = experiment: Antibiotic activity against Bacillus anthracis assessed as reduction in bacterial growth by Alamar Blue dye based CLSI broth microdilution method; assay type: functional
Staphylococcus aureus [1] = experiment: Antibiotic activity against Staphylococcus aureus ATCC 13709 assessed as reduction in bacterial growth by Alamar Blue dye based CLSI broth microdilution method; assay type: functional
Klebsiella pneumoniae = experiment: Antibiotic activity against Klebsiella pneumoniae ATCC 10031 assessed as reduction in bacterial growth by Alamar Blue dye based CLSI broth microdilution method; assay type: functional, organism-based
Staphylococcus aureus [2] = experiment: Antibiotic activity against multidrug-resistant Staphylococcus aureus NE277 assessed as reduction in bacterial growth by Alamar Blue dye based CLSI broth microdilution method; assay type: functional, organism-based
Staphylococcus aureus [3] = experiment: Antibiotic activity against multidrug-resistant Staphylococcus aureus CAIRD148 assessed as reduction in bacterial growth by Alamar Blue dye based CLSI broth microdilution method; assay type: functional, organism-based
Staphylococcus aureus [4] = experiment: Antibiotic activity against multidrug-resistant Staphylococcus aureus CAIRD142 assessed as reduction in bacterial growth by Alamar Blue dye based CLSI broth microdilution method; assay type: functional, organism-based
Staphylococcus aureus [5] = experiment: Antibiotic activity against multidrug-resistant Staphylococcus aureus CAIRD116 assessed as reduction in bacterial growth by Alamar Blue dye based CLSI broth microdilution method; assay type: functional, organism-based

Row | Structure (SMILES) | Activity (Pseudomonas aeruginosa) | MIC (Nakaseomyces glabratus) | Activity (Escherichia coli) | MIC (Streptococcus pyogenes) | MIC (Bacillus subtilis) | MIC (Candida albicans) | MIC (Bacillus anthracis) | MIC (Staphylococcus aureus [1]) | Activity (Klebsiella pneumoniae) | Activity (Staphylococcus aureus [2]) | Activity (Staphylococcus aureus [3]) | Activity (Staphylococcus aureus [4]) | Activity (Staphylococcus aureus [5])
1 | C[C@@H]1CCCCCCCCC[C@H](OC(=O)CCC(=O)O)[C@H](O)CCC(=O)O1 | inactive | > 500 µM and > 45 µg/mL | inactive | > 500 µM and > 45 µg/mL | > 500 µM and > 45 µg/mL | > 500 µM and > 45 µg/mL | > 500 µM and > 45 µg/mL | > 500 µM and > 45 µg/mL | inactive | – | – | – | –
2 | C[C@@H]1CCCCCCCCC[C@H](OC(=O)CCC(=O)O)C(=O)/C=C/C(=O)O1 | – | 125 µM and 48 µg/mL | – | 125 µM and 48 µg/mL | 32 µM and 12 µg/mL | 250 µM and 96 µg/mL | 16 µM and 6 µg/mL | 8 µM and 3 µg/mL | – | Active | Active | Active | Active
3 | C[C@@H](O)CCCCCCCCC[C@H](O)[C@H]1CCC(=O)O1 | inactive | > 500 µM and > 143 µg/mL | inactive | 16 µM and 5 µg/mL | > 500 µM and > 143 µg/mL | > 500 µM and > 143 µg/mL | > 500 µM and > 143 µg/mL | 500 µM and 143 µg/mL | inactive | – | – | – | –
4 | C[C@@H]1CCCCCCCCC[C@H](O)[C@H](O)/C=C/C(=O)O1 | – | > 250 µM and > 71 µg/mL | – | > 250 µM and > 71 µg/mL | > 250 µM and > 71 µg/mL | > 250 µM and > 71 µg/mL | 250 µM and > 71 µg/mL | 250 µM and 71 µg/mL | – | – | – | – | –
5 | C[C@@H](O)CCCCCCCCC[C@H](OC(=O)CCC(=O)O)[C@H]1CCC(=O)O1 | inactive | 500 µM and 193 µg/mL | inactive | > 500 µM and 193 µg/mL | 500 µM and 193 µg/mL | 125 µM and 48 µg/mL | > 500 µM and 193 µg/mL | 500 µM and 193 µg/mL | inactive | – | – | – | –
6 | COC(=O)[C@]12C(=O)[C@]3(C)O[C@](C)(C=C4[C@]5(C=O)CC[C@H](OC(C)=O)C(C)(C)[C@H]5CC[C@@]41C)[C@@]2(C)C3=O | inactive | > 500 µM and > 248 µg/mL | inactive | – | 250 µM and 124 µg/mL | > 500 µM and > 248 µg/mL | 125 µM and 62 µg/mL | 125 µM and 62 µg/mL | inactive | – | – | – | –
7 | C[C@@H]1CCC(O)CCCCCC[C@H](OC(=O)CCC(=O)O)C(=O)/C=C/C(=O)O1 (some centres undefined) | – | > 500 µM and > 200 µg/mL | – | 250 µM and 100 µg/mL | 125 µM and 50 µg/mL | > 500 µM and > 200 µg/mL | 64 µM and 26 µg/mL | 32 µM and 13 µg/mL | – | Active | Active | Active | Active
8 | C[C@@H]1CCCCCCCCC[C@H](OC(=O)CCC(=O)O)[C@H](O)/C=C/C(=O)O1 | – | > 250 µM and > 90 µg/mL | – | > 250 µM and > 90 µg/mL | > 250 µM and > 90 µg/mL | > 250 µM and > 90 µg/mL | > 250 µM and > 90 µg/mL | 125 µM and 45 µg/mL | – | – | – | – | –
9 | C[C@@H]1CCCCCCCCCC[C@H](O)/C=C/C(=O)O1 | – | > 250 µM and > 67 µg/mL | – | 250 µM and 67 µg/mL | 125 µM and 33 µg/mL | > 250 µM and > 67 µg/mL | 125 µM and > 67 µg/mL | 125 µM and 33 µg/mL | – | – | – | – | –
10 | C[C@@H]1CCCCCCCCC[C@H](O)[C@H](OC(=O)CCC(=O)O)/C=C/C(=O)O1 | – | > 250 µM and > 90 µg/mL | – | > 250 µM and > 90 µg/mL | 125 µM and 45 µg/mL | > 250 µM and > 90 µg/mL | 250 µM and > 90 µg/mL | 125 µM and 45 µg/mL | – | – | – | – | –
